biological target: T1, ACE2: SARS-CoV-2 Spike complex (UniProt P0DTC2+Q9BYF1); test: biochemical; assay type: binding, human ACE2 / SARS-CoV-2 spike
T1 construct: BPS Bioscience Cat: 79936; inferred from capture on a nickel-coated plate; inferred from detection with anti-mouse Fc-HRP; purchased BPS Bioscience 79936

Row | SMILES | Lab Results | activity against the complex of the spike protein and ACE2 | IC50 [nM]
1 | N.O=C(O)C(=O)C[C@@H](O)[C@@H](O)[C@H](O)[C@H](O)CO [2-keto-3-deoxyoctonate ammonium salt, 2-Keto-3-deoxyoctonate ammonium salt] | P (key: P: positive (interacting); N: negative (non-interacting)) | – | –
2 | OC[C@H]1O[C@H](OC[C@H]2O[C@H](OC[C@H]3OC(O)[C@@H](O)[C@@H](O[C@H]4O[C@H](CO)[C@@H](O)[C@H](O)[C@@H]4O)[C@@H]3O)[C@@H](O)[C@@H](O[C@H]3O[C@H](CO)[C@@H](O)[C@H](O)[C@@H]3O)[C@@H]2O)[C@@H](O)[C@@H](O)[C@@H]1O (stereo partly drawn) [3 α ,6 α -Mannopentaose] | N (key: P: positive (interacting); N: negative (non-interacting)) | inactive | –
3 | CC(=O)N[C@H]1C(O)O[C@H](CO)[C@@H](O[C@@H]2O[C@H](CO)[C@H](O)[C@H](O)[C@H]2O)[C@@H]1O (stereo partly shown) [N-Acetyllactosamine] | P (key: P: positive (interacting); N: negative (non-interacting)) | – | –
4 | O=C(CO)N[C@H]1[C@H]([C@H](O)[C@H](O)CO)O[C@](O)(C(=O)O)C[C@@H]1O [N-Glycolylneuraminic, N-glycolylneuraminic acid] | P (key: P: positive (interacting); N: negative (non-interacting)) | – | –
5 | CC(=O)N[C@H]1[C@H]([C@H](O)[C@H](O)CO)OC(O)(C(=O)O)C[C@@H]1O (stereo partly shown) [N-acetyl-neuraminic, N-acetyl-neuraminic acid] | P (key: P: positive (interacting); N: negative (non-interacting)) | – | 19
6 | CC(=O)N[C@H]1[C@H]([C@H](O)[C@H](O)CO)O[C@](OP(=O)([O-])OC[C@H]2O[C@@H](n3ccc(N)nc3=O)[C@H](O)[C@@H]2O)(C(=O)O)C[C@@H]1O.[Na+] [cytidine-5-monophospho-N-acetylneuraminic acid sodium salt] | P (key: P: positive (interacting); N: negative (non-interacting)) | – | –
7 | CC(C)CN(C[C@@H](O)[C@H](Cc1ccccc1)NC(=O)O[C@H]1CO[C@H]2OCC[C@H]21)S(=O)(=O)c1ccc(N)cc1 [darunavir, Darunavir, reference compound] | P (key: P: positive (interacting); N: negative (non-interacting)) | – | 5.5
